From patent US10398142B2, “Polycationic amphiphiles as antimicrobial agents” (priority 2013, dated 2019)
Like-named read-outs stand apart in the source and are kept apart here. Marks after values point to notes of the source that are not given here.

Experiments:
MSSA (SH1000) = assay: Resistance development, liquid culture serial passage; assay type: cell-based, Staphylococcus aureus; conditions: for elevated concentration with consistent growth: MSSA (SH1000) passaged with sub-lethal doses; for resistance in serial passage, MSSA: over 24 days (>500 generations)
Experimental: (§1) Resistance development such as liquid culture resistance assay was performed. […] Once a day, an aliquot of bacterial culture from the highest concentration allowing bacterial growth was diluted 1:10,000 in fresh media containing a range of antibacterial compound. This process was repeated for several hundred generations.
(§2) Resistance Development Assays: Liquid culture serial passage protocols, in which bacteria are successively grown at sub-lethal concentrations of antibacterial compound, were employed.

[1] = test system: red blood cells (defibrinated sheep blood); assay: Hemolysis assay (Lysis20); conditions: concentration at which less than 20% of red blood cells are lysed
Experimental: Hemolysis assays (Lysis20) were performed according to the procedure detailed in Peng, L., DeSousa, J., Su, Z., Novak, B. M., Nevzorov, A. A., Garland, E. R., and Melander, C., Inhibition of Acinetobacter baumannii biofilm formation on a methacrylate polymer containing a 2-aminoimidazole subunit, Chem. Comm. 2011, 47, 4896-4898. Defibrinated sheep blood was purchased from Hemostat Labs (DSB 100). Compounds representative of each class were serially diluted in sterile PBS from aqueous stock solutions and incubated with resuspended blood cells. The OD of the final suspensions were measured directly using plate reader. TritonX (1% by volume) served as a positive control (100% lysis marker) and sterile PBS served as a negative control (0% lysis marker).
Lysis20 indicates the concentration of compound (in μM) at which less than 20% of red blood cells are lysed.

[2] = test system: S. aureus (MSSA, SH1000) biofilms; assay: Minimum biofilm eradication concentration (MBEC), regrowth assay; assay type: cell-based, Staphylococcus aureus; conditions: for MBEC MSSA: Table 5, SH1000
Procedure, shortened: (§3)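 Static 24 h biofilms at 37° C. (BHI for S. aureus, Todd Hewitt for E. faecalis), then 16 h compound exposure, PBS washes and overnight regrowth in fresh media. MBEC is the lowest concentration giving final OD595 below 0.1; four replicates per concentration.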

[3] = test system: CA-MRSA (USA300-0114) biofilms; assay: as above; assay type: cell-based, Staphylococcus aureus; conditions: for MBEC CA-MRSA: Table 5, USA300-0114
Experimental: A regrowth assay was used to establish the MBEC of a compound to evaluate the antibiofilm activity. See also H. Ceri, M. Olson, D. Morck, D. Storey, R. Read, A. Buret, B. Olson, Methods Enzymol. 2001, 337, 377.
Different biological assays were performed. For all biological assays, laboratory strains of methicillin-susceptible Staphylococcus aureus MSSA (SH1000), Enterococcus faecalis (OG1RF), Escherichia coli (MC4100), Pseudomonas aeruginosa (PAO1), community-acquired methicillin-resistant Staphylococcus aureus CA-MRSA (USA300-0114), and hospital-acquired methicillin-resistant Staphylococcus aureus HA-MRSA (ATCC 33591) were grown at 37° C. overnight from freezer stocks in 10 mL of the media indicated for each assay. All cultures, with the exception of E. faecalis, were grown with shaking at 250 rpm.
Minimum biofilm eradication concentration (MBEC) was also measured. To each well of a flat-bottomed 96-well plate (Corning 3370), 8 μL of overnight bacterial culture was brought to a volume of 200 μL with fresh media (BHI for S. aureus and MRSA, Todd Hewitt (TH) for E. faecalis). Plates were incubated statically for 24 hours at 37° C. to establish biofilms. After 24 hours, the wells were carefully emptied by inverting the plate and gently shaking. A pre-mixed solution of media and aqueous compound stock solution was added to each well and plates were incubated at 37° C. 16 hours after pre-established biofilms were treated with compound, the media from each well was removed, biofilms were washed three times with 200 μL PBS to remove planktonic cells, and biofilms were incubated overnight at 37° C. in 200 μL of fresh media to allow any viable cells to continue growing. The wells were then vigorously pipetted to resuspend the biofilm cells and the OD at 595 nm was measured using a plate reader (POLARstar Omega, BMG Labtech). Biofilms reaching a final OD of less than 0.1 were considered eradicated and the lowest concentration of antibiotic corresponded to the MBEC. Four replicates were completed for each concentration of compound as well as positive and negative controls.

E. faecalis biofilms = assay: as above; assay type: cell-based, Enterococcus faecalis
Procedure, shortened: as §3

[4] = test system: Enterococcus faecalis (OG1RF); assay: Minimum inhibitory concentration (MIC), broth microdilution; assay type: cell-based; conditions: for MIC: read-out: MIC E. faecalis
Procedure, shortened: (§4)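 Broth microdilution: two-fold serial dilutions (twelve concentrations) mixed 1:1 with overnight cultures diluted to ca. 10^6 cfu/mL in Mueller-Hinton media, incubated statically at 37° C for 72 hours. MIC is lowest concentration with no growth visible to the naked eye, majority of three independent experiments.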

[5] = test system: Escherichia coli (MC4100); assay: as above; assay type: cell-based; conditions: for MIC: read-out: MIC E. coli
Procedure, shortened: as §4

[6] = test system: Pseudomonas aeruginosa (PAO1); assay: as above; assay type: cell-based
Procedure, shortened: as §4

[7] = test system: Staphylococcus aureus MSSA (SH1000); assay: as above; assay type: cell-based
Procedure, shortened: as §4

CA-MRSA (USA300-0114) [8] = assay: as above; assay type: cell-based, Staphylococcus aureus; conditions: for MIC: read-out: MIC CA-MRSA
Experimental: (§5) Different biological assays were performed. […] All cultures, with the exception of E. faecalis, were grown with shaking at 250 rpm.
(§6) Minimum inhibitory concentration (MIC) values against bacteria were measured using standard method. Compounds were serially diluted two-fold from an aqueous stock solution to yield twelve test concentrations. Overnight S. aureus, E. faecalis, E. coli, P. aeruginosa, CA-MRSA, and HA-MRSA cultures diluted to ca. 10^6 cfu/mL in Mueller-Hinton media and 100 μL were inoculated into each well of a U-bottom 96-well plate (BD Biosciences, BD351177) containing 100 μL of compound solution. Plates were incubated statically at 37° C. for 72 hours upon which time wells were evaluated visually for bacterial growth. The MIC was determined as the lowest concentration of compound resulting in no bacterial growth visible to the naked eye, based on the majority of three independent experiments. Positive and negative aqueous and media controls were conducted for each trial.

HA-MRSA (ATCC 33591) = assay: as above; assay type: cell-based, Staphylococcus aureus; conditions: for MIC: read-out: MIC HA-MRSA
Experimental: as §5, §6

S. aureus biofilms = assay: Crystal violet staining and confocal microscopy of pre-established biofilms; assay type: cell-based, Staphylococcus aureus; conditions: compared to the aqueous control or norspermidine; 16 h post-treatment
Experimental: Left: Submerged S. aureus biofilms 16 h post-treatment with the indicated final well concentration of compound. Middle: Biofilms stained with 1% crystal violet. Right: Confocal microscopy images of biofilms 16 h post-treatment.
The inventors have determined that both cationic character and alkyl side chains are important for biofilm eradication.

CA-MRSA (USA300-0114) [9] = assay: Resistance development, liquid culture serial passage; assay type: cell-based, Staphylococcus aureus; conditions: for resistance in serial passage, CA-MRSA (USA300-0114): over 24 days (>500 generations)
Experimental: as §1, §2

[10] = Table 2, pre-established biofilm, ± values varied between 50 and 100 μM for the six trials
[11] = Table 3, read-out: MIC P. aeruginosa
[12] = Table 3, read-out: MIC S. aureus
[13] = Table 1, read-out: MIC P. aeruginosa
[14] = Table 1, read-out: MIC S. aureus
[15] = Table 4, SH1000, read-out: MIC MSSA
[16] = over a period of at least 14 days
[17] = table for compound (12,3,2,3,12)

## CCCCCCCCCCCC[N+](C)(C)Cc1ccccc1.[Cl-] [Bn,12, benzyldimethyldodecylammonium chloride, reference compound]
MSSA (SH1000); Bn,12: 31 days (>700 generations), 10,10: 10 days, 240 generations
  resistance development in MSSA (in words): development of resistance
MSSA (SH1000); at day 11
  elevated concentration with consistent growth: 2 ×MIC
MSSA (SH1000); at day 24
  elevated concentration with consistent growth: 4 ×MIC
[1]; Table 4
  Lysis20: 63 µM
[2]; [10]
  MBEC S. aureus: 200 µM
[2]
  MBEC MSSA: >200 µM
[3]
  MBEC CA-MRSA: ≤200 µM
E. faecalis biofilms; [10]
  MBEC E. faecalis: 200 µM
E. faecalis biofilms; Table 5
  MBEC E. faecalis: ≥200 µM
[4]; Enterococcus faecalis
  MIC: 8 µM
[4]; Table 3
  MIC: 8 µM
[5]; Escherichia coli
  MIC: 32 µM
[5]; Table 3
  MIC: 32 µM
[6]; Pseudomonas aeruginosa, PAO1, read-out: MIC P. aeruginosa
  MIC: 63 µM
[6]; [11]
  MIC: 63 µM
[7]; Staphylococcus aureus, MSSA, read-out: MIC MSSA
  MIC: 8 µM
[7]; Staphylococcus aureus, MSSA, read-out: MIC S. aureus
  MIC: 8 µM
[7]; [12]
  MIC: 8 µM
CA-MRSA (USA300-0114) [8]; Staphylococcus aureus
  MIC: 32 µM
CA-MRSA (USA300-0114) [8]; compared with MSSA
  potency against CA-MRSA strain possessing qacA/R (in words): decreased potency
HA-MRSA (ATCC 33591); Staphylococcus aureus
  MIC: 8 µM

## CCCCCCCCCCCC[N+](C)(C)CCCN(C)CCC[N+](C)(C)CCCCCCCCCCCC.[Br-].[Br-] [12,3,0,3,12]
S. aureus biofilms
  effect against pre-established biofilms, crystal violet staining: significant effect
[1]; Table 4
  Lysis20: 4 µM
[2]; [10]
  MBEC S. aureus: 100 µM
[2]
  MBEC MSSA: 50 µM
[3]
  MBEC CA-MRSA: 150 ± 50 µM
E. faecalis biofilms; [10]
  MBEC E. faecalis: 50 µM
E. faecalis biofilms; Table 5
  MBEC E. faecalis: 100 µM
[4]; Table 1
  MIC: ≤0.25 µM
[4]; Table 3
  MIC: 2 µM
[5]; Table 1
  MIC: ≤0.25 µM
[5]; Table 3
  MIC: 1 µM
[6]; [13]
  MIC: 4 µM
[6]; [11]
  MIC: 4 µM
[7]; [14]
  MIC: 1 µM
[7]; [12]
  MIC: 1 µM
[7]; [15]
  MIC: 1 µM
CA-MRSA (USA300-0114) [8]; Table 4, USA300-0114
  MIC: 1 µM
HA-MRSA (ATCC 33591); Table 4, ATCC 33591
  MIC: 0.5 µM

## CCCCCCCCCCCC[N+](C)(C)CCC[N+](C)(C)CCC[N+](C)(C)CCCCCCCCCCCC.[Br-].[Br-].[I-] [12,3,1,3,12]
S. aureus biofilms
  effect against pre-established biofilms, crystal violet staining: significant effect
[1]; Table 4
  Lysis20: 8 µM
[2]; [10]
  MBEC S. aureus: 100 µM
[2]
  MBEC MSSA: 100 µM
[3]
  MBEC CA-MRSA: 150 ± 50 µM
E. faecalis biofilms; [10]
  MBEC E. faecalis: 50 µM
E. faecalis biofilms; Table 5
  MBEC E. faecalis: 200 µM
[4]; Table 1
  MIC: 1 µM
[4]; Table 3
  MIC: 2 µM
[5]; Table 1
  MIC: 1 µM
[5]; Table 3
  MIC: 2 µM
[6]; [13]
  MIC: 2 µM
[6]; [11]
  MIC: 8 µM
[7]; [14]
  MIC: 0.5 µM
[7]; [12]
  MIC: 1 µM
[7]; [15]
  MIC: 1 µM
CA-MRSA (USA300-0114) [8]; Table 4, USA300-0114
  MIC: 0.5 µM
HA-MRSA (ATCC 33591); Table 4, ATCC 33591
  MIC: 1 µM

## CCCCCCCCCCCC[N+](C)(C)CCC[N+](C)(CC)CCC[N+](C)(C)CCCCCCCCCCCC.[Br-].[Br-].[Br-] [12,3,2,3,12]
CA-MRSA (USA300-0114) [9]
  resistance in serial passage, CA-MRSA (USA300-0114): No resistance was observed
CA-MRSA (USA300-0114) [9]; [16]
  resistance in serially passaged liquid culture, USA300-0114: No resistance was observed
MSSA (SH1000)
  resistance in serial passage, MSSA: No resistance was observed
MSSA (SH1000); [16]
  resistance in serially passaged liquid culture, SH1000: No resistance was observed
[1]; Table 4
  Lysis20: 8 µM
[1]; [17]
  Lysis20: 8 µM
[2]
  MBEC MSSA: 100 µM
[2]; [17]
  MBEC S. aureus: 100 µM
[3]
  MBEC CA-MRSA: 100 µM
[3]; [17]
  MBEC USA300-0114: 100 µM
E. faecalis biofilms; Table 5
  MBEC E. faecalis: 100 µM
E. faecalis biofilms; [17]
  MBEC E. faecalis: 100 µM
[4]; [17]
  MIC E. faecalis (OG1RF): 0.5 µM
[5]; [17]
  MIC E. coli (MC4100): 1 µM
[6]; [17]
  MIC P. aeruginosa (PA01): 2 µM
[7]; [15]
  MIC: 0.5 µM
[7]; [17]
  MIC S. aureus (SH1000): 0.5 µM
CA-MRSA (USA300-0114) [8]; Table 4, USA300-0114
  MIC: 0.5 µM
CA-MRSA (USA300-0114) [8]; [17]
  MIC CA-MRSA (USA300-0114): 0.5 µM
HA-MRSA (ATCC 33591); Table 4, ATCC 33591
  MIC: 1 µM
HA-MRSA (ATCC 33591); [17]
  MIC HA-MRSA (ATCC33591): 1 µM

## CCCCCCCCCCCC[N+](C)(C)CCC[N+](C)(C)CCCCCCCCCCCC.[Br-].[Br-] [12,3,12]
S. aureus biofilms
  effect against pre-established biofilms, crystal violet staining: significant effect
CA-MRSA (USA300-0114) [9]
  resistance in serial passage, CA-MRSA (USA300-0114): No resistance was observed
MSSA (SH1000)
  resistance in serial passage, MSSA: No resistance was observed
[1]; Table 4
  Lysis20: 8 µM
[2]; [10]
  MBEC S. aureus: 100 µM
[2]
  MBEC MSSA: 75 ± 25 µM
[3]
  MBEC CA-MRSA: 100 µM
E. faecalis biofilms; [10]
  MBEC E. faecalis: 75 ± 25^a μM
E. faecalis biofilms; Table 5
  MBEC E. faecalis: 50 µM
[4]; Table 1
  MIC: 1 µM
[5]; Table 1
  MIC: 1 µM
[6]; [13]
  MIC: 4 µM
[7]; [14]
  MIC: 2 µM
[7]; [15]
  MIC: 2 µM
CA-MRSA (USA300-0114) [8]; Table 4, USA300-0114
  MIC: 1 µM
HA-MRSA (ATCC 33591); Table 4, ATCC 33591
  MIC: 2 µM
